Consider 27 compounds from patent US20250275988A1, “FORMULATION FOR TREATING URINARY SYSTEM DISORDERS” (WATERSHED MEDICAL, INC., priority 2022, published 2025).

In brackets after ≈: the same amount, converted by molar mass. Like-named read-outs stand apart in the source and are kept apart here.

The nature of series [1]: anti-bacterial properties of SSD degradation products. The following applies: compared with SSD before degradation in the bladder. The text has this: These degradation products include, for example, sulfanilic acid; sulfanilamide; sulfaguanidine, the guanidine derivative of sulfanilamide; and […].
Series [2] can be described thus: density and max drug loading of antimicrobial agents considered for carrier particles. As to conditions: Table 7. The class given is physicochemical.
For series [3] the following is noted: cited from earlier work.
In series [4] the test system is MDR Ecoli and non-MDR Ecoli isolates. As to the kind of experiment: MIC90 of antimicrobial agents. The class given is cell-based.
The nature of a further series: density of materials. In kind it is physicochemical. The following applies: Table 4.
[5] abbreviates: agents marked *: tested against both MDR Ecoli and non-MDR Ecoli isolates, read-out: MIC90.
[6] abbreviates: tested against non-MDR Ecoli isolates only, read-out: MIC90.
The mark [7] stands for this setting: agents marked *: tested against both MDR Ecoli and non-MDR Ecoli isolates.
Setting [8] is: tested against non-MDR Ecoli isolates only.

Turning to `Nc1ccccn1` [2-aminopyridine], in series [1], the anti-bacterial properties entry was “comparable to the original compound”.
Compound `NCC[C@H](O)C(=O)N[C@@H]1C[C@H](N)[C@@H](O[C@H]2O[C@H](CN)[C@@H](O)[C@H](O)[C@H]2O)[C@H](O)[C@H]1O[C@H]1O[C@H](CO)[C@@H](O)[C@H](N)[C@H]1O` [Amikacin] had a Density in series [2] of 1.6 g/mL. In addition, the solubility in water in series [3] was 50 mg/mL (≈ 85400 µM). For the same compound, the MIC90 in series [4] (setting [5]) was 4 µg/mL (≈ 6.83 µM).
In series [2], `C[C@H]1[C@H](NC(=O)/C(=N\OC(C)(C)C(=O)O)c2csc(N)n2)C(=O)N1S(=O)(=O)O` [Aztreoman] had a Density of 1.83 g/mL. In addition, in series [4] (setting [6]), the MIC90 was determined as 16 µg/mL (≈ 36.7 µM).
The matching figures for `CO/N=C(\C(=O)N[C@@H]1C(=O)N2C(C(=O)[O-])=C(C[N+]3(C)CCCC3)CS[C@H]12)c1csc(N)n1` [Cefepime]: 1.6 g/mL and 8 µg/mL (≈ 16.6 µM).
The matching figures for `CO[C@@]1(NC(=O)Cc2cccs2)C(=O)N2C(C(=O)O)=C(COC(N)=O)CS[C@@H]21` [Cefoxitin]: 1.6 g/mL and 16 µg/mL (≈ 37.4 µM).
Turning to `CC(C)(O/N=C(\C(=O)N[C@@H]1C(=O)N2C(C(=O)[O-])=C(C[n+]3ccccc3)CS[C@H]12)c1csc(N)n1)C(=O)O` [Ceftazidime], the Density in series [2] worked out at 1.6 g/mL. Besides, the MIC90 in series [4] (setting [6]) amounted to 8 µg/mL (≈ 14.6 µM).
In the same order, the values of `[H]/N=C(\N/C(=N/[H])NCCCCCCNC(=N)NC(=N)Nc1ccc(Cl)cc1)Nc1ccc(Cl)cc1` [Chlorohexidine] are 1.06 g/mL and 3 µg/mL (≈ 5.94 µM).
In the case of `C[C@@H](O)[C@H]1C(=O)N2C(C(=O)O)=C(S[C@@H]3CN[C@H](CNS(N)(=O)=O)C3)[C@H](C)[C@H]12` [Doripenem], the MIC90 in series [4] (setting [6]) was no more than 0.12 µg/mL.
Take `C[C@@H](O)[C@H]1C(=O)N2C(C(=O)O)=C(S[C@@H]3CN[C@H](C(=O)Nc4cccc(C(=O)O)c4)C3)[C@H](C)[C@H]12` [Ertapenem]: in series [2], the Density was determined as 1.6 g/mL. Moreover, the MIC90 in series [4] (setting [5]) was determined as 0.03 µg/mL (≈ 0.0631 µM).
As for `CCCCCCCCCCCCCCCCCCCCCC(=O)OCC(O)CO` (centres unmarked) [Glyceryl behenate], the Density in the series “density of materials” amounted to 0.942 g/mL.
Regarding `CCCCCCCCCCCCCC(=O)OCC(COC(=O)CCCCCCCCCCCCC)OC(=O)CCCCCCCCCCCCC` [Glyceryl trimyristate], the Density in “density of materials” amounted to 0.885 g/mL.
Still for that read-out and setting: to `CCCCCCCCCCCCCCCC(=O)OCC(COC(=O)CCCCCCCCCCCCCCC)OC(=O)CCCCCCCCCCCCCCC` [Glyceryl tripalmitate] belongs 0.8752 g/mL; to `CCCCCCCCCCCCCCCCCC(=O)OCC(COC(=O)CCCCCCCCCCCCCCCCC)OC(=O)CCCCCCCCCCCCCCCCC` [Glyceryl tristearate], 0.862 g/mL.
`C[C@@H](O)[C@H]1C(=O)N2C(C(=O)O)=C(SCCN=CN)C[C@H]12` [Imipenem]: the MIC90 in series [4] (setting [5]) was no more than 0.12 µg/mL.
With `C[C@@H](O)[C@H]1C(=O)N2C(C(=O)O)=C(S[C@@H]3CN[C@H](C(=O)N(C)C)C3)[C@H](C)[C@H]12` [Meropenem], the Density in series [2] was 1.4 g/mL. In addition, in series [4] (setting [6]), the MIC90 is no more than 0.06 µg/mL.
`CCCCCCCCCCCCCCCCCCO` [Stearyl alcohol] displayed a Density in “density of materials” of 0.812 g/mL.
With `CN(C)c1cc(NC(=O)CNC(C)(C)C)c(O)c2c1C[C@H]1C[C@H]3[C@H](N(C)C)C(O)=C(C(N)=O)C(=O)[C@@]3(O)C(O)=C1C2=O` [Tigecycline], the Density in series [2] stood at 1.5 g/mL. The compound also had an MIC90 in series [4] of 0.25 µg/mL (≈ 0.427 µM).
For the compound `NC[C@H]1O[C@H](O[C@H]2[C@H](O)[C@@H](O[C@H]3O[C@H](CO)[C@@H](O)[C@H](N)[C@H]3O)[C@H](N)C[C@@H]2N)[C@H](N)C[C@@H]1O` [Tobramycin], the Density in series [2] came out at 1.5 g/mL. Besides, the MIC90 in series [4] (setting [6]) came to 8 µg/mL (≈ 17.1 µM).
Regarding `[H]/N=C(/N)NS(=O)(=O)c1ccc(N)cc1` [sulfaguanidine], the anti-bacterial properties result in series [1] is “comparable to the original compound”.
As for `Nc1ccc(S(N)(=O)=O)cc1` [sulfanilamide], the anti-bacterial properties entry in series [1] was “comparable to the original compound”.
Same read-out and setting: to `Nc1ccc(S(=O)(=O)O)cc1` [sulfanilic acid] belongs “comparable to the original compound”.
Cefoperazone-avibactam showed a Density in series [2] of 1.5 g/mL. In series [4] (setting [7]), this compound gave an MIC90 of 0.25 ppm.
Turning to Cefoperazone-sulbactam, the MIC90 in series [4] (setting [8]) amounted to 4 ppm.
With Cefoperazone-tazobacatam, in series [2], the Density turned out to be 1.5 g/mL. The MIC90 in series [4] (setting [7]) was found to be 0.5 ppm.
In the case of Colistin, in series [4] (setting [7]), the MIC90 is reported as no more than 0.5 ppm.
As to Piperacillin-tazobactam, the Density in series [2] was 1.5 g/mL. The same compound showed an MIC90 in series [4] (setting [8]) of 4 ppm.
In series [4] (setting [7]), Polymxin B registered an MIC90 of 1 ppm.
